Data: patent US20260345635A1, “SPRAY DRIED TREPROSTINIL FORMULATION” (Insmed Incorporated, priority 2023, published 2026)

Key:
[1] = In vitro aerosol performance of TPIP from HR RS01 DPI by Next Generation Impactor with breath simulator; assay type: physicochemical; conditions: 30 LPM; for FPD (<5 μm), TP: 16 mg capsule
Protocol: All the experiments in the following examples of present disclosure were performed with the RS01 Model 7 Plastiape (Plastiape S.p.A., Osnago, Italy) high resistance (HR) (code 239700002AA) DPI device for evaluation. The following examples relate to in vitro aerosol performance of the capsules containing 16 and 32 mg TPIP utilizing the HR RS01 Plastiape device in response to more clinically relevant inhalation profiles deviating from the rectangular wave profile. The aerosol performance were evaluated at different inhalation volumes of 4 L, 2 L or 1 L and at a different peak inspiratory flow rate of 60 LPM corresponding to a pressure drop of 4 kPa or 30 LPM corresponding to a pressure drop of 0.89 kPa across the device to reflect a diverse set of user scenarios.
An RS01 Model 7 Plastiape (Plastiape S.p.A., Osnago, Italy) high resistance (HR) (code 239700002AA) DPI device was used for evaluation. The pressure drop across the HR device containing an empty capsule was measured as a function of flow rate between 30 to 100 L/min (LPM).
To evaluate the differences in aerosol performance in response to different breathing profiles, TPIP aerosol emitted from the HR Plastiape device was delivered to the NGI (MSP Corp., Shoreview, MN) at ambient temperatures and low humidity (<45% RH) under various scenarios generated by the breathing simulator (BRS 3100, Copley), as presented in FIG. 1. A mixing inlet (Copley) was attached in between the pre-separator and the induction port to allow a constant flow rate of 30 or 60 LPM to be achieved through the NGI, while varying the change in inhalation profiles from the HR Plastiape device via BRS system. The outlet port of the NGI was connected to a vacuum pump drawing 30 or 60 LPM airflow (X) via a critical flow controller (TPK 2100, Copley), and an airflow of 30 or 60 LPM (Y) was drawn into the mixing inlet to ensure that initially no airflow (X-Y=0) was drawn through the inhaler. Aerosolization of the powder into the NGI was triggered by the BRS system via a diversion valve that redirects the airflow (Y) into the BRS system. For example, if 30 LPM airflow of Y is redirected to the BRS system, this would cause 30 LPM airflow to be drawn through the inhaler and into the mixing inlet. Therefore, the simulated inhalation profile generated by the BRS system is identical to the inhalation profile through the inhaler.
The BRS software was manually programmed through a Word Pad script to simulate inhalation acceleration rates of 20, 5.88, 2, 1, and 0.5 L/sec^2 corresponding to 50, 170, 500, 1000, and 2000 millisecond (ms) ramp times for a total inhaled volume of 4 L, and for 2 and 1 L inhalation volumes at both extreme acceleration rates to achieve the 60 LPM flow rate. Additionally, the breathing profile scripts for the 1, 2, and 4 L inhalation volumes at 20 and 0.5 L/s^2 (corresponding to 50 and 2000 ms ramp times) to reach the 30 LPM flow rate are included. A trapezoidal waveform was used to maintain the 4 L total inhalation volume as well as to keep the maximum inhalation flow rate at 60 LPM corresponding to the 4 kPa pressure drop across the device (FIG. 2A). Additionally, the breathing profiles with reduced inhalation volumes of 1 and 2 L were evaluated at the two extreme acceleration rates of 20 and 0.5 L/s^2 (corresponding to 50 and 2000 ms ramp times) for the 60 LPM inspiratory flow rate (FIG. 2B), and 25 and 1000 ms ramp times for the 30 LPM inspiratory flow rate (FIG. 2C).
The aerosol performance of each inhalation profile was characterized for TP with respect to its emitted dose (ED), mass median aerodynamic diameter (MMAD), geometric standard deviation (GSD), fine particle fraction<5 μm (FPF) and fine particle dose<5 μm (FPD) as described below. The total recovery of TP was also measured to provide assurance that each experiment was conducted acceptably. […]

[2] = Aerosol performance of TPIP by NGI with four RS01 devices of different resistance; assay type: physicochemical
Protocol: FIGS. 8A-8C are graphs showing TP Fine Particle Fraction (FPF) (FIG. 8A); Fine Particle Dose (FPD) as a Function of Device Resistance for the 8 mg (blue), 16 mg (orange), and 32 mg (gray) Capsule Dose (FIG. 8B); and TP FPD as a Function of Capsule Dose for Each Device (FIG. 8C). Trend lines are only shown for the UHR and HR DPIs in FIG. 8C. The ultra-high resistance (UHR), the high resistance (HR), the medium resistance (MR) and the low resistance (LR) devices were tested at 40, 60, 85 and 100 LPM, respectively.
The aerosolized composition is administered to a patient in need of treatment of PH, e.g., PAH or PH associated with interstitial lung disease (PH-ILD). In one embodiment, the aerosolized composition is administered to a patient in need of treatment of pulmonary fibrosis (e.g., PH-ILD where the ILD is pulmonary fibrosis). The aerosolized composition can be characterized by certain parameters known to those of skill in the art, such as fine particle fraction (FPF), fine particle dose (FPD), emitted dose (ED), mass median aerodynamic diameter (MMAD) and/or particle size and distribution. In embodiments, these parameters are measured by NGI. In embodiments, the NGI uses a flow rate corresponding to a 3 kPa to 4.5 kPa air pressure drop relative the resistance of the DPI. In embodiments, the pressure drop is 4 kPa. For example, the performance of an ultra high resistance (UHR), high resistance (HR) and medium resistance (MR) devices may be evaluated by drawing 4 L of air through the DPI at a flow rate of 40, 60 and 85 LPM, respectively, corresponding to the 4 kPa air pressure drop. Aerosol characterization data for the above-noted parameters can be compared across different DPI devices (with different resistances). In embodiments, the mean inhaler resistance of a high resistance DPI used to achieve the parameters described herein ranges from 0.025 to 0.040 kPA^1/2 (L/min^−1)^−1. In embodiments, the mean inhaler resistance of a high resistance DPI used to achieve the parameters described herein ranges from 0.030 to 0.040 kPA^1/2 (L/min^−1)^−1. In embodiments, the mean inhaler resistance of a high resistance DPI used to achieve the parameters described herein ranges from about 0.034 to about 0.036 kPA^1/2 (L/min^−1)^−1.
Four Plastiape RS01 Model 7 DPIs (Plastiape S. p.A., Osnago, Italy) differ with respect to their device resistance: Ultra-high Resistance (UHR, code 239700005AA), High Resistance (HR, code 239700002AA), Medium Resistance (MR, code 239700006AA) and Low Resistance (LR, code 239700001AB). The pressure drop across each device containing an empty capsule was measured as a function of flow rate between 30 and 120 L/min (LPM). The present disclosure teaches that the high resistance DPI device is selected for evaluation and use. A peak inspiratory flow rate of 80 LPM, 60 LPM, 40 LPM, or 30 LPM corresponds to a pressure drop of 5.4 kPa, 4 kPa, 1.4 kPa, or 0.89 kPa, respectively, for the high resistance DPI.
In this Example, Applicant investigated the aerosol performance of TPIP in response to changes in capsule fill, device resistance, and inspiratory flow rate to enable selection of an inhaler for clinical use. Capsules containing 8, 16 or 32 mg of TPIP (80, 160, or 320 μg TP, respectively) were evaluated using four breath-actuated RS01 devices with low, medium, high or ultra-high inspiratory resistances, creating 12 different capsule and device configurations for evaluation.
The TP aerosol particle size distribution profiles for the UHR, HR, MR, and LR DPI devices are shown in FIGS. 7A-7C for the 8, 16 and 32 mg TPIP capsules, respectively. The TP aerosol particle size distribution profiles are polydisperse for the LR, MR and HR devices with the UHR device showing a trend towards a less polydisperse profile. The values for the total mass recoveries, emitted dose, MMAD, GSD, FPF, and FPD for the UHR, HR, MR, and LR devices loaded with 8, 16 and 32 mg TPIP capsules are shown in Table 5.

[3] = 16 mg capsule, all four devices
[4] = 32 mg capsule, LR device, 100 LPM
[5] = 32 mg capsule, MR device (printed MA), 85 LPM

ED ([1]; 16 mg capsule, 1, 2, 4 L, 25 ms ramp): 76% | emitted doses ([1]; 16 mg capsule, 1, 2, 4 L, 1000 ms ramp): 72-75% | FPD (<5 μm), TP ([1]; 25 ms ramp, 1 L): 93 µg | FPD (<5 μm), TP ([1]; 25 ms ramp, 4 L): 92 µg | FPD (<5 μm), TP ([1]; 1000 ms ramp, 1 L): 87 µg | FPD (<5 μm), TP ([1]; 1000 ms ramp, 4 L): 90 µg | FPD [2, 3]: 98 to 104 µg | FPF [2, 3]: 71-81% | FPD (<5 μm), TP [2, 4]: 155 µg | FPF (<5 μm) [2, 4]: 58% | FPD (<5 μm), TP [2, 5]: 168 µg | FPF (<5 μm) [2, 5]: 62% | FPD ([2]; 32 mg capsule, UHR and HR devices): 197 to 200 µg | FPF ([2]; 32 mg capsule, all four devices): 58-76%
SMILES: CCCCCCCCCCCCCCCCOC(=O)COc1cccc2c1C[C@H]1C[C@@H](O)[C@H](CC[C@@H](O)CCCCC)[C@H]1C2 [TP, treprostinil palmitil]
